Measurements published in ChEMBL document CHEMBL4800728, “Data for DCP probe JNJ-54119936” (2021).
Calls of active or inactive are those of the source. No cut-off for these calls is given here.

Legend:
[1] = biological target: Glycogen synthase kinase-3 beta (Homo sapiens) (UniProt P49841); test: GSK3beta Invitrogen kinase panel; conditions: Compound concentration 10.0 uM
[2] = biological target: T1, Peroxisome proliferator-activated receptor gamma (Homo sapiens) (UniProt P37231); test: PPARgamma Indigo Bioscience nuclear receptor screen
T1 sequence (whole entry): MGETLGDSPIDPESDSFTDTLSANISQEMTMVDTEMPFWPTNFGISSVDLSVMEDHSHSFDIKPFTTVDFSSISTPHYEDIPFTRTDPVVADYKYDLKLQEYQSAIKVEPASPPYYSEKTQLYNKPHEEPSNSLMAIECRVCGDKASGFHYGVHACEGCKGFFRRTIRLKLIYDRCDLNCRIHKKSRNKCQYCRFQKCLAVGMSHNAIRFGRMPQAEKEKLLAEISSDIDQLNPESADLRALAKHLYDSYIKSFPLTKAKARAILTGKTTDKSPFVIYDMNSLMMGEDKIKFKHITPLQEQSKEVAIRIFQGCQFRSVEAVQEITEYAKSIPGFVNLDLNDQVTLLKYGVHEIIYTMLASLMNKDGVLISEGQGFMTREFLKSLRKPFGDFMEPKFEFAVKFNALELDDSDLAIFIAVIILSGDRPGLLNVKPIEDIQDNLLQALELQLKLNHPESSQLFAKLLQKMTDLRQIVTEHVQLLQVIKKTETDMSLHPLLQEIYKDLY

[3] = biological target: Delta-type opioid receptor (Homo sapiens) (UniProt P41143); conditions: Compound concentration 10.0 uM
[4] = biological target: Histamine H2 receptor (Homo sapiens) (UniProt P25021); conditions: Compound concentration 10.0 uM
[5] = biological target: Sodium-dependent dopamine transporter (Homo sapiens) (UniProt Q01959); test: dopamine transporter (h) CEREP screen
[6] = biological target: Nuclear receptor ROR-gamma (Homo sapiens, UniProt P51449); test: One-hybrid LBD; set-up: compound concentration 6 uM
[7] = biological target: Fibroblast growth factor receptor 1 (Homo sapiens) (UniProt P11362); test: FGFR1 Invitrogen kinase panel; conditions: Compound concentration 10.0 uM
[8] = biological target: Ribosomal protein S6 kinase alpha-2 (Homo sapiens) (UniProt Q15349); test: Rsk3 Invitrogen kinase panel; conditions: Compound concentration 10.0 uM
[9] = biological target: Beta-2 adrenergic receptor (Homo sapiens) (UniProt P07550); conditions: Compound concentration 10.0 uM
[10] = biological target: Proto-oncogene tyrosine-protein kinase Src (Homo sapiens) (UniProt P12931); test: SRC Invitrogen kinase panel; conditions: Compound concentration 10.0 uM
[11] = biological target: Sigma non-opioid intracellular receptor 1 (Homo sapiens, UniProt Q99720); test: GPCRScan assay: inhibition of Sigma 1; set-up: radioligand conc. used [nm] 4.0 – 5.0, parental cells HEKT
[12] = biological target: Inhibitor of nuclear factor kappa-B kinase subunit beta (Homo sapiens) (UniProt O14920); test: IKKbeta Invitrogen kinase panel; conditions: Compound concentration 10.0 uM
[13] = biological target: Platelet-derived growth factor receptor beta (Homo sapiens) (UniProt P09619); test: PDGFRbeta Invitrogen kinase panel; conditions: Compound concentration 10.0 uM
[14] = biological target: Glycogen synthase kinase-3 alpha (Homo sapiens) (UniProt P49840); test: GSK3alpha Invitrogen kinase panel; conditions: Compound concentration 10.0 uM
[15] = biological target: NT-3 growth factor receptor (Homo sapiens) (UniProt Q16288); test: TrkC Invitrogen kinase panel; conditions: Compound concentration 10.0 uM
[16] = biological target: Peroxisome proliferator-activated receptor delta (Homo sapiens, UniProt Q03181); test: (§1) PPARdelta In-house nuclear receptor screen
[17] = biological target: T2, Peroxisome proliferator-activated receptor delta (Homo sapiens) (UniProt Q03181); test: as §1; conditions: Compound concentration 3.0 uM
T2 sequence (whole entry): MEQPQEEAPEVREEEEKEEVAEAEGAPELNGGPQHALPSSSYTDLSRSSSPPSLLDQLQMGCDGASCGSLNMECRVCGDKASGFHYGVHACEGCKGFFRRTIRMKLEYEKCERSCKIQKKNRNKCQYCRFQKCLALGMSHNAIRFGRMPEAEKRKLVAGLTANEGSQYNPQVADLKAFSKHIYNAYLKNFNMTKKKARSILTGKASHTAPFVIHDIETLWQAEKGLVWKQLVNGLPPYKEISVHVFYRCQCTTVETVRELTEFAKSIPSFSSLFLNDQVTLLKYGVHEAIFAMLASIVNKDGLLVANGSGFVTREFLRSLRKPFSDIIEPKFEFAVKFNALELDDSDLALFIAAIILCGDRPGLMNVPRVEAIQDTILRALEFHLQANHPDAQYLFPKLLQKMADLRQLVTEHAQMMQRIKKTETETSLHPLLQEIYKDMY

[18] = biological target: D(1A) dopamine receptor (Homo sapiens) (UniProt P21728); test: D1 (h) CEREP screen; conditions: Compound concentration 10.0 uM
[19] = biological target: Cyclin-dependent kinase 1/cyclin B (Homo sapiens) (UniProt P06493+P14635+Q8WWL7+O95067); test: CDK1/cyclinB Invitrogen kinase panel; format: protein-complex assay; conditions: Compound concentration 10.0 uM
[20] = biological target: Sodium-dependent noradrenaline transporter (Homo sapiens) (UniProt P23975); conditions: Compound concentration 10.0 uM
[21] = biological target: 5-hydroxytryptamine receptor 2C (Homo sapiens) (UniProt P28335); conditions: Compound concentration 10.0 uM
[22] = biological target: D(4) dopamine receptor (Homo sapiens) (UniProt P21917); conditions: Compound concentration 10.0 uM
[23] = biological target: T3, PXR (nuclear receptor subfamily 1 group I member 2) (Homo sapiens, UniProt O75469); test: PXR Indigo Bioscience nuclear receptor screen
T3 sequence (O75469 whole entry): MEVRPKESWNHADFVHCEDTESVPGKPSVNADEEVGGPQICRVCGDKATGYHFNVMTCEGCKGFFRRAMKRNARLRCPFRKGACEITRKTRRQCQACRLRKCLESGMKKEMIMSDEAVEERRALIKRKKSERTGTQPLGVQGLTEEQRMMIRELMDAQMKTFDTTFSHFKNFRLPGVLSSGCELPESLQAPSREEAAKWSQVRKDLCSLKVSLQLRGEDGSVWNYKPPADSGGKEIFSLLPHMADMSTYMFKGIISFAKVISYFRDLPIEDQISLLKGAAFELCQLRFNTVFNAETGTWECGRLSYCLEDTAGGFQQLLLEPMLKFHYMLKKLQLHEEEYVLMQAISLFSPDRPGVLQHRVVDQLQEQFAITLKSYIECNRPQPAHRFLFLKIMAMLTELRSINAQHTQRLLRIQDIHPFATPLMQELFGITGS

[24] = biological target: 5-hydroxytryptamine receptor 3A (Homo sapiens) (UniProt P46098); conditions: Compound concentration 10.0 uM
[25] = biological target: D(2) dopamine receptor (Homo sapiens) (UniProt P14416); conditions: Compound concentration 10.0 uM
[26] = biological target: Substance-K receptor (Homo sapiens) (UniProt P21452); test: NK2 (h) CEREP screen; conditions: Compound concentration 10.0 uM
[27] = biological target: Casein kinase I isoform epsilon (Homo sapiens) (UniProt P49674); test: CK1epsilon Invitrogen kinase panel; conditions: Compound concentration 10.0 uM
[28] = biological target: Receptor-type tyrosine-protein kinase FLT3 (Homo sapiens) (UniProt P36888); test: Flt3 Invitrogen kinase panel; conditions: Compound concentration 10.0 uM

Chain of Sigma non-opioid intracellular receptor 1 (Q99720 whole entry): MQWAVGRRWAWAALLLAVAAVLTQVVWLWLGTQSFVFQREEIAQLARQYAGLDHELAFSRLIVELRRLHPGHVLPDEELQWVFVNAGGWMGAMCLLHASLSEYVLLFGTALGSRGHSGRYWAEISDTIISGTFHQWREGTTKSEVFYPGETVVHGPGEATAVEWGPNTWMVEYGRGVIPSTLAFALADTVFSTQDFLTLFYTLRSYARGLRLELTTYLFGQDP
Chain of Sodium-dependent dopamine transporter (Homo sapiens) (Q01959 whole entry, the tested form may be a part): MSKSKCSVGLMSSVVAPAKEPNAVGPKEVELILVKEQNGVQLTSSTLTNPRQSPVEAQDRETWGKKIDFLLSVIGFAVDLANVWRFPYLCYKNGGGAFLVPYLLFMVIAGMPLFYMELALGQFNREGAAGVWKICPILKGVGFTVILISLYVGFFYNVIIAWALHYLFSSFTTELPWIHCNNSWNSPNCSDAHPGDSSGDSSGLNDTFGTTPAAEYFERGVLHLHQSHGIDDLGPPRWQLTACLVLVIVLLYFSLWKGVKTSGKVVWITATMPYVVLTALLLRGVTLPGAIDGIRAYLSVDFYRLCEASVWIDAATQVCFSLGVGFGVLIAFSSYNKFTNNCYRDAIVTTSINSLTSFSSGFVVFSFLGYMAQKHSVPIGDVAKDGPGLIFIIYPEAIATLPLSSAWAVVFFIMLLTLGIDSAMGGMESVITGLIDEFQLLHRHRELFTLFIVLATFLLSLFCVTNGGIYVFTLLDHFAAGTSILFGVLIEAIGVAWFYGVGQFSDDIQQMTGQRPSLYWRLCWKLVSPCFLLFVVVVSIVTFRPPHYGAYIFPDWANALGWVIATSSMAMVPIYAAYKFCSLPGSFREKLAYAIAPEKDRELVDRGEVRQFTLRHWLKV
Chain of Beta-2 adrenergic receptor (Homo sapiens) (P07550 whole entry, looked up): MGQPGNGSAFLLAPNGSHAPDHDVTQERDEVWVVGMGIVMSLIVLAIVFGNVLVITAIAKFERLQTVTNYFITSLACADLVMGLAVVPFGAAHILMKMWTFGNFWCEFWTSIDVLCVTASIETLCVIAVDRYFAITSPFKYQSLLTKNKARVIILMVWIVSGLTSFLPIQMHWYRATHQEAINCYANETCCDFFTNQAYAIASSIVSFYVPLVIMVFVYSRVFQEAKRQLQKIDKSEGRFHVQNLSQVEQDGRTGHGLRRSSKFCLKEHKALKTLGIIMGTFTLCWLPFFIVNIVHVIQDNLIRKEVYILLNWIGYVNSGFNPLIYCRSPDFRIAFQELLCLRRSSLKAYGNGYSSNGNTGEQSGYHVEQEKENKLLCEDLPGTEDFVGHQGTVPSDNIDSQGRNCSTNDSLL
Chain of Ribosomal protein S6 kinase alpha-2 (Homo sapiens) (Q15349 whole entry): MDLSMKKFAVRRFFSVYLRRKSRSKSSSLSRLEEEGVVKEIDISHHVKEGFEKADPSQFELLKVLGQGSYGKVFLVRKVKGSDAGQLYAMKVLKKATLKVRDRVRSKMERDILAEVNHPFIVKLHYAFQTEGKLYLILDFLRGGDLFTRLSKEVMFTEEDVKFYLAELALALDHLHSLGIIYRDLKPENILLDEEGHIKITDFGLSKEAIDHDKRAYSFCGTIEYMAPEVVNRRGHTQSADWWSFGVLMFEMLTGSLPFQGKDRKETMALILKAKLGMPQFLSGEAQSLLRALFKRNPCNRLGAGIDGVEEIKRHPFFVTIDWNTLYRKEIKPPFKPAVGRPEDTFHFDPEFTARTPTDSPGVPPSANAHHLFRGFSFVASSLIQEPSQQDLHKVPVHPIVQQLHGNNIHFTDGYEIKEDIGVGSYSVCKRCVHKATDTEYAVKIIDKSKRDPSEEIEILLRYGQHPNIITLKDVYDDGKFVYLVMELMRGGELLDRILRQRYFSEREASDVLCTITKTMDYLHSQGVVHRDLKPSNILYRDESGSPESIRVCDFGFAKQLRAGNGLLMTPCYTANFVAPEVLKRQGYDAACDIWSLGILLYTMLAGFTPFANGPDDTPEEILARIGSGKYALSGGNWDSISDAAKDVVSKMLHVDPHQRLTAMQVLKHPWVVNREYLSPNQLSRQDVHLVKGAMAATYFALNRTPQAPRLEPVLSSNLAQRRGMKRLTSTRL
Chain of Fibroblast growth factor receptor 1 (Homo sapiens) (P11362 22-822 limits assumed): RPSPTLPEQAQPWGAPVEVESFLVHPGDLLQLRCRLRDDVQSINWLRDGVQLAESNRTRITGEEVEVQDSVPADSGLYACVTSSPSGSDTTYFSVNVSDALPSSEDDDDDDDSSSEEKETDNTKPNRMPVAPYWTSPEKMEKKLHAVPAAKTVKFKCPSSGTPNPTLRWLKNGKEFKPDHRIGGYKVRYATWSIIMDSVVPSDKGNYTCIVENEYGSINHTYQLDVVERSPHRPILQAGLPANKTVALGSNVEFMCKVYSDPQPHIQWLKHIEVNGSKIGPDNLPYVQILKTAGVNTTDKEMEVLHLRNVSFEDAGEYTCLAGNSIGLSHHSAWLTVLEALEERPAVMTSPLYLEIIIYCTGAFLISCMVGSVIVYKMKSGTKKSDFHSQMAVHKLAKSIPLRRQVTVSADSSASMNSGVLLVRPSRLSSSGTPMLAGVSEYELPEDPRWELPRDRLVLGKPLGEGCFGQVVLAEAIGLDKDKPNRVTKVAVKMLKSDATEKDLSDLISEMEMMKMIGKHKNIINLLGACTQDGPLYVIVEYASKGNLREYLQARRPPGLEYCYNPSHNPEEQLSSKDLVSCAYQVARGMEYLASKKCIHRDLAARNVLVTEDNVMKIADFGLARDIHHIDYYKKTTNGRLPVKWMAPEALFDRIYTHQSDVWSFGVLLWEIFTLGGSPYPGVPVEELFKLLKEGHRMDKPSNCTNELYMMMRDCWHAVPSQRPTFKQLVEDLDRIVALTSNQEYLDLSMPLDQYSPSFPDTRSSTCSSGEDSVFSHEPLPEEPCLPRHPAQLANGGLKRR
Chain of Histamine H2 receptor (Homo sapiens) (P25021 whole entry): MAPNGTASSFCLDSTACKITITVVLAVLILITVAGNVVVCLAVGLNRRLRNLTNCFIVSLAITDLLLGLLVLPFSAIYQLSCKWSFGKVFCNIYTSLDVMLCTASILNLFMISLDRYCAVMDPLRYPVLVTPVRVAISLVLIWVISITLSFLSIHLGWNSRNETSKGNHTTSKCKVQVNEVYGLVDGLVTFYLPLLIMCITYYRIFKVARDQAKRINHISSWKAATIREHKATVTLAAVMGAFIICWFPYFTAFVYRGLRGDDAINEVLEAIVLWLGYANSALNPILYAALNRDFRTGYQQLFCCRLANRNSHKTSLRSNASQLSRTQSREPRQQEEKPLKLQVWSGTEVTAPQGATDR
Chain of D(4) dopamine receptor (Homo sapiens) (P21917 whole entry): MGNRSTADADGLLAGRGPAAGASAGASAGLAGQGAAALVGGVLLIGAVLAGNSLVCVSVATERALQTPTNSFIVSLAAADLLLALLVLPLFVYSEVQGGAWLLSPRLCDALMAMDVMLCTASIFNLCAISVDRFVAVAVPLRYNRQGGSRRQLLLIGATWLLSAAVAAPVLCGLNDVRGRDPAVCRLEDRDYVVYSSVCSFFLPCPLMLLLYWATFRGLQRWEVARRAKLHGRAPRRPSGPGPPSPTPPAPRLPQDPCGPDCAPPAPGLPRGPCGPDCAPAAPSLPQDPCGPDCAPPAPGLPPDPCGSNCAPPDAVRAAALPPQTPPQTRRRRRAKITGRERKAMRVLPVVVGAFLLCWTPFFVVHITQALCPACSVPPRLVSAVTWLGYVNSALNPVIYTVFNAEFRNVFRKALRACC
Chain of D(1A) dopamine receptor (Homo sapiens) (P21728 whole entry): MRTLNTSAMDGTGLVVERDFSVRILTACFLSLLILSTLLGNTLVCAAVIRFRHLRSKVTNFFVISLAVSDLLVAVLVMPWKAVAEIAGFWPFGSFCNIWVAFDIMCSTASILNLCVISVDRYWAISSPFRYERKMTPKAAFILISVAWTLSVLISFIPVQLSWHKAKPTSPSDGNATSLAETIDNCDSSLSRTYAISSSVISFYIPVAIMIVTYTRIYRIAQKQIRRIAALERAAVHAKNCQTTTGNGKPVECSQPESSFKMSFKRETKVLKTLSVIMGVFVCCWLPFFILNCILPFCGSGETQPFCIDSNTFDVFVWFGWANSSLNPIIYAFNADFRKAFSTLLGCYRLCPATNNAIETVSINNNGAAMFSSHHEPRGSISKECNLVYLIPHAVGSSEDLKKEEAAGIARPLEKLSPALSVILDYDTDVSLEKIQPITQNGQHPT
Chain of Sodium-dependent noradrenaline transporter (Homo sapiens) (P23975 whole entry): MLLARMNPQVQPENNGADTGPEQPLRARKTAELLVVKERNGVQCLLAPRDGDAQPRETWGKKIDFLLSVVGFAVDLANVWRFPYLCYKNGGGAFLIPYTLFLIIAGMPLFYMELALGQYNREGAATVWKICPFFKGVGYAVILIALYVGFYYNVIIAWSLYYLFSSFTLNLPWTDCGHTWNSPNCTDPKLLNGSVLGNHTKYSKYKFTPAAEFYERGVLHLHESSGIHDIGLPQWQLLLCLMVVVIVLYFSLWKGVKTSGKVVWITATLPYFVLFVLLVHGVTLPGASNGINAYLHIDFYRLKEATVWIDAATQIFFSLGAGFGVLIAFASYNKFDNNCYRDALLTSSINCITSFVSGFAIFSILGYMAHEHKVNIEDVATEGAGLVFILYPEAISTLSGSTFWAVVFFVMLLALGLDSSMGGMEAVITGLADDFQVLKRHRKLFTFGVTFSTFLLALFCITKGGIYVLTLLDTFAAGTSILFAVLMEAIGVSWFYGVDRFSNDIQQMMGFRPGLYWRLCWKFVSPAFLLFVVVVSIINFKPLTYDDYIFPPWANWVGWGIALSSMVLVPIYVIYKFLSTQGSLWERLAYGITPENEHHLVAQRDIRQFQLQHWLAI

**Q.** How did the inhibition [1] turn out when COc1nc2ccc([C@@](O)(c3ccccc3)C3CCN(C(C)=O)CC3)cc2c(Cl)c1Cc1ccc(-n2cccn2)cc1 [JNJ-54119936] was run?
**A.** 3%

**Q.** And the inhibition ([2]; Compound concentration 0.3 uM)?
**A.** -0.894%

**Q.** And the inhibition ([2]; Compound concentration 3.0 uM)?
**A.** -6.01%

**Q.** What about the inhibition [3] of the same compound?
**A.** 7.18%

**Q.** And the inhibition [4]?
**A.** -0.99%

**Q.** And the inhibition ([5]; Compound concentration 1.0 uM)?
**A.** 18%

**Q.** What about the inhibition ([5]; Compound concentration 10.0 uM) of the same compound?
**A.** 30%

**Q.** And the IC50 [6]?
**A.** 0.03 µM (active)

**Q.** And the inhibition [7]?
**A.** -2%

**Q.** What about the inhibition [8] of the same compound?
**A.** 11%

**Q.** And the inhibition [9]?
**A.** 15.6%

**Q.** What about the inhibition [10] of the same compound?
**A.** 4%

**Q.** And the Ki ([11]; read-out: Ki)?
**A.** 3.13 µM

**Q.** What about the Ki ([11]; read-out: pKi (converted)) of the same compound?
**A.** 3.02 µM

**Q.** What about the inhibition [12] of the same compound?
**A.** 6%

**Q.** And the inhibition [13]?
**A.** 5%

**Q.** What about the inhibition [14] of the same compound?
**A.** -4%

**Q.** And the inhibition [15]?
**A.** 3%

**Q.** And the IC50 [16]?
**A.** 5.9 µM

**Q.** And the inhibition [17]?
**A.** 37.3%

**Q.** What about the inhibition [18] of the same compound?
**A.** 16%

**Q.** What about the inhibition [19] of the same compound?
**A.** 0%

**Q.** And the inhibition [20]?
**A.** 21.7%

**Q.** What about the inhibition [21] of the same compound?
**A.** 21.2%

**Q.** And the inhibition [22]?
**A.** -5.45%

**Q.** And the inhibition at 0.3 µM ([23]; compound concentration 0.3 uM)?
**A.** -7.63% (not active)

**Q.** What about the inhibition at 1 µM ([23]; compound concentration 1 uM) of the same compound?
**A.** -26.4% (not active)

**Q.** And the inhibition at 3 µM ([23]; compound concentration 3 uM)?
**A.** 1.01% (not active)

**Q.** And the inhibition [24]?
**A.** 9.28%

**Q.** What about the inhibition [25] of the same compound?
**A.** 12.5%

**Q.** And the inhibition [26]?
**A.** 23%

**Q.** And the inhibition [27]?
**A.** 0%

**Q.** What about the inhibition [28] of the same compound?
**A.** 4%
